Experimental data taken from paper PMC8615111, “Phenolic Thiazoles with Antioxidant and Antiradical Activity. Synthesis, In Vitro Evaluation, Toxicity, Electrochemical Behavior, Quantum Studies and Antimicrobial Screening” (Antioxidants, 2021).

Key:
[1] = DPPH˙ radical scavenging by cyclic voltammetry
Method: The antioxidant properties were evaluated in terms of their activity against some free radicals, and other compounds reported in the literature, relevant for this purpose, such as: • ferric ions (Fe^3+)—used to test the reduction of the antioxidant character of the compounds; • DPPH˙ free radical– used to test the scavenging effect of the compounds on this radical; • hydrogen peroxide (H2O2)—used to test the scavenging effect of the synthesized molecules on this compound; • 2,2,6,6-tetramethylpiperidinyl-1-oxy (TEMPO)—used to test the scavenging effect of the synthesized molecules on this compound.
The radical scavenging properties of the novel compounds and the other antioxidants were determined using a stock DPPH˙ radical solution prepared in absolute ethanol. The antioxidant samples were mixed with DPPH˙ solution and HClO4 electrolyte and incubated in the dark for 30 min. The remaining redox activity of DPPH was measured by cycling the potential between −0.7 V and 1.2 V, with a scan rate of 0.1 V/s.
The nitrogen-centered 2-2-diphenyl-1-picrylhydrazyl radical (DPPH˙) based assay is one of the most commonly employed method to evaluate the ability of a compound to scavenge or neutralize free radicals based on the reduction of the radical.
Taking into account the redox activity of DPPH˙, its diminution by an antioxidant can also be followed by CV, which is expected to show changes in the voltammetric peaks. Figure A5 reports the electrochemical study of initial electrooxidation of DPPH˙ and the novel compounds compared to remaining peaks after their incubation for 30 min. The decrease of all the peaks after mixture incubation indicates the partial consumption of DPPH˙.

[2] = ABTS˙^+ radical scavenging assay; type: biochemical; conditions: for IC50: ABTS˙^+ scavenging
Method: The assay was based on the decolorization of green (2,2′-azinobis-(3-ethylbenzothiazoline-6-sulfonic acid) ABTS˙^+ to ABTS, on the principle reported by Re et al. and was carried out according to our previously published research.
Later, 1950 µL of ABTS˙^+ reagent was added to all cuvettes and they were shaken for well over 10 min in the dark at room temperature. The absorbance of the resulted solutions found in cuvettes was determined spectrophotometrically at λ = 734 nm. The ABTS scavenging activity of the compounds was calculated using the following Equation (1):(1) ABTS scavenging (%)=control absorbance−sample absorbance/control absorbance×100

[3] = Cyclic voltammetry of the compounds on graphite-based SPE; type: physicochemical; conditions: CV, 0.1 M HClO4, graphite-based SPE
Method: The evaluated compounds’ stock solutions used were prepared at a concentration of 5 mM. To test their redox properties, dilutions of 0.5 mM and 2 mM were prepared in 0.1 M HClO4 electrolyte (pH = 1.2). Screen-printed electrodes (SPEs; Metrohm DropSens, Oviedo, Spain) (planar electrodes) with graphite and gold working electrodes were used. Cyclic voltammetry (CV) and differential pulse voltammetry (DPV) were the electrochemical methods applied. The experimental conditions for each test are mentioned near the corresponding data (Appendix A).
In Figure 2, the cyclic voltammograms (CVs) for each of the compounds considered in this study, compared individually with the voltammogram obtained in the electrolyte (0.1 M HClO4), are presented. Thus, the oxidation/reduction peaks corresponding to the electrochemical transformations suffered by each compound can be observed in the potential range considered, in an acidic environment (low pH). From Figure 3, where the voltammograms of all eight compounds were presented together, a similarity is observed between 8a and 8b, and among the other compounds, whereas 5a and 5b can be noted as having the highest oxidation signals.

[4] = NO˙ radical scavenging assay (Griess reaction); type: biochemical; conditions: 100 µL of test solution 1 mg/mL in DMSO, 150 min, pH 7.4
Method: Scavenging of the NO˙ radical was performed according to some adapted protocols reported in the literature, based on the nitroprusside decomposition at physiological pH and colorimetric quantification of the resulted products using the Griess reaction.
Over 200 µL of 10 mM sodium nitroprusside, 100 µL of test solutions (1 mg/mL in DMSO), and 400 µL phosphate-buffered saline (PBS, pH = 7.4) were added. The mixture was then incubated at room temperature for 150 min on a rotating shaker (GFL Gesellschaft für Labortechnik, Burgwedel, Germany). After that, 1 mL of sulfanilic acid 0.33% in 20% acetic acid was added and after 5 min, 1 mL of naphthylethylenediamine […] 0.1% was added to all test tubes. After 30 min, the absorbance of the sample, given by the chromophore (azo dye) formed during the diazotization of nitrite ions resulting from decomposition of sodium nitroprusside with sulfanilic acid and coupled with naphthylethylenediamine, was measured at 546 nm. The NO˙ radical scavenging activity of the tested compounds was calculated using Equation (3):(3) NO˙ scavenging (%)=control absorbance−sample absorbance/control absorbance×100

[5] = test system: P. aeruginosa ATCC 27853; assay: Antimicrobial activity, modified microdilution; type: cell-based; conditions: Pseudomonas aeruginosa, ATCC27853
Method: For evaluating the antimicrobial activity of the compounds, […] aerobic microbial strains were used: S. aureus ATCC 25923, S. pyogenes ATCC 19615, P. aeruginosa ATCC 27853, S. enterica ISM 83/37, S. typhimurium ATCC 14028, E. coli ATCC 8739, E. coli ATCC 25922, and C. albicans ATCC 102310 obtained from Food Biotechnology Laboratory, Life Sciences Institute, University of Agricultural Sciences, and Veterinary Medicine Cluj Napoca, where the experiment was performed. The antimicrobial activity of the compounds was determined using a modified microdilution technique, and the followed protocol was previously reported.
The antimicrobial activity of the final compounds, against seven aerobic microbial strains (S. aureus ATCC 25923, S. pyogenes ATCC 19615, P. aeruginosa ATCC 27853, S. enterica ISM 83/37, S. typhimurium ATCC 14028, E. coli ATCC 8739, E. coli ATCC 25922), and a fungal strain (C. albicans ATCC 102310), was determined using a modified microdilution technique.
The results of the antimicrobial activity evaluation of the compounds, in comparison to norfloxacin and chloramphenicol used as standard antibiotics and fluconazole used as reference antifungal, are depicted in Table 10.

[6] = Cu^2+ chelation assay; type: biochemical
[7] = compound + DPPH, 30 min, 1st Ered
[8] = compound + DPPH, 30 min, 1st Ired
[9] = compound + DPPH, 30 min, 2nd Eox
[10] = compound alone, 2nd Ered column

| Compound | Iox (μA) ([1]; compound + DPPH, 30 min) | Eox (V) [1, 9] [V] | Ered (V) [1, 10] [V] | Ired (μA) ([1]; compound alone, 2nd Ired) | % of ABTS˙^+ Scavenged ([2]; 0.5 µg/mL) [%] | % of ABTS˙^+ Scavenged ([2]; 0.75 µg/mL) [%] | % of ABTS˙^+ Scavenged ([2]; 1 µg/mL) [%] | % of ABTS˙^+ Scavenged ([2]; 1.5 µg/mL) [%] | % of ABTS˙^+ Scavenged ([2]; 2.5 µg/mL) [%] | IC50 [2] [µg/mL] | Eox (V) ([3]; 1st oxidation peak) | Iox (μA) ([3]; 1st oxidation peak) | Eox (V) ([3]; 2nd oxidation peak) | Iox (μA) ([3]; 2nd oxidation peak) | Ired (μA) ([3]; 2nd reduction peak) | % of NO˙ Scavenged [4] [%] | MIC [5] [µg/mL] | Chelation Capacity (%), cupric ions ([6]; 3.36 µg/mL) [%] | Chelation Capacity (%), cupric ions ([6]; 6.72 µg/mL) [%] | Chelation Capacity (%), cupric ions ([6]; 10.08 µg/mL) [%] | other results |
| --- | --- | --- | --- | --- | --- | --- | --- | --- | --- | --- | --- | --- | --- | --- | --- | --- | --- | --- | --- | --- | --- |
| Br.Oc1ccc(/C=N/Nc2nc(-c3ccccc3)cs2)c(O)c1 [Compound 6b, (E)-2-(2,4-dihydroxybenzylidene)-1-(4-phenylthiazol-2-yl)hydrazin-1-ium bromide] | 43.4 | 0.391 | 0.239 | −7.045 | 11.67 | 17.45 | 19.83 | 28.56 | 42.53 | 2.97 | 0.296 | 5.28 | 0.467 | 44.99 | −1.49 | 28.35 | > 100 | 3.84 | 6.80 | 10.44 | Ered (V) [1, 7]: 0.302 V; Ired (μA) [1, 8]: −1.09 μA; Ered (V) ([1]; compound + DPPH, 30 min, 2nd Ered column): 0.425 V; Ired (μA) ([1]; compound + DPPH, 30 min, 2nd Ired): −1.23 μA; Iox (μA) ([1]; compound alone): 47.3 μA; Eox (V) ([1]; compound alone, 2nd Eox): 0.391 V; Ered (V) ([3]; 1st reduction peak): −0.08 V; Ired (μA) ([3]; 1st reduction peak): −2.22 μA; Ered (V) ([3]; 2nd reduction peak): 0.070 V; Ered (V) ([3]; 3rd reduction peak): 0.401 V; Ired (μA) ([3]; 3rd reduction peak): −5.91 μA; Chelation Capacity (%), cupric ions ([6]; 13.44 µg/mL): 14.34%; Chelation Capacity (%), cupric ions ([6]; 16.80 µg/mL): 17.07% |
| Br.C/C(=N\Nc1nc(-c2ccc(O)c(C(N)=O)c2)cs1)c1ccc(O)cc1O [Compound 7a, (E)-1-(4-(3-carbamoyl-4-hydroxyphenyl)thiazol-2-yl)-2-(1-(2,4-dihydroxyphenyl)ethylidene)hydrazin-1-ium bromide] | 9.24 | 0.405 | 0.217 | −5.26 | 11.62 | 17.29 | 22.69 | 30.78 | 49.37 | 2.52 | 0.269 | 14.75 | 0.374 | 2.06 | −4.65 | 21.44 | 3.9 | 8.76 | 16.70 | 26.63 | Eox (V) ([1]; compound alone 0.5 mM in 0.1 M HClO4, 1st Eox column): 0.205 V; Iox (μA) ([1]; compound alone 0.5 mM in 0.1 M HClO4, 1st Iox column): 3.21 μA; Eox (V) ([1]; compound alone, 3rd Eox column): 0.493 V; Iox (μA) ([1]; compound alone, 3rd Iox column): 3.95 μA; Ered (V) ([3]; 2nd reduction peak): 0.205 V; Eox (V) ([3]; 3rd oxidation peak): 0.561 V; Iox (μA) ([3]; 3rd oxidation peak): 2.69 μA; Chelation Capacity (%), cupric ions ([6]; 13.44 µg/mL): 34.35%; Chelation Capacity (%), cupric ions ([6]; 16.80 µg/mL): 38.88% |
| Br.NC(=O)c1cc(-c2csc(N/N=C/c3ccc(O)cc3O)n2)ccc1O [Compound 7b, (E)-1-(4-(3-carbamoyl-4-hydroxyphenyl)thiazol-2-yl)-2-(2,4-dihydroxybenzylidene) hydrazin-1-ium bromide] | 9.076 | 0.359 | 0.276 | −2.54 | 25.42 | 30.15 | 36.50 | 49.20 | 69.53 | 1.60 | 0.267 | 13.22 | 0.412 | 15.78 | 0.078 | 26.33 | 15.6 | 7.23 | 11.41 | 14.46 | Ered (V) [1, 7]: 0.291 V; Ired (μA) [1, 8]: −7.43 μA; Iox (μA) ([1]; compound alone): 15.65 μA; Eox (V) ([1]; compound alone, 2nd Eox): 0.342 V; Ired (μA) ([3]; 1st reduction peak): −0.119 μA; Eox (V) ([3]; 3rd oxidation peak): 0.543 V; Iox (μA) ([3]; 3rd oxidation peak): 6.385 μA; Ired (μA) ([3]; 3rd reduction peak): 0.201 μA; Chelation Capacity (%), cupric ions ([6]; 13.44 µg/mL): 19.40%; Chelation Capacity (%), cupric ions ([6]; 16.80 µg/mL): 22.72% |
